# Measured values as given in BindingDB's records for patent US10780095 (THE REGENTS OF THE UNIVERSITY OF CALIFORNIA, 2020).
# Biological target: Prokineticin receptor 1 (Human, UniProt Q8TCW9)
# Test: Aequorin-Based Luminescent Assay
# Description: An aequorin-based luminescent assay for calcium mobilization was used to measure mobilization of intracellular Ca2+ (Bullock et al., Mol Pharmacol 65, 582-588, 2004). Chinese hamster ovary (CHO) cells stably expressing photoprotein aequorin and recombinant PKR1 or PKR2 were tested by this method. Briefly, the cells were charged in Opti-MEM (Invitrogen) containing 8 μM of coelenterazine cp at 37° C. for 2 hours. Cells were detached by brief trypsinization and maintained in Hank's Balanced Salt Solution (HBSS) plus 10 mM HEPES (pH7.5) and 0.1% BSA at about 5×10^5 cells/ml. Luminescence measurements were made using a Berthold luminometer.All compounds were diluted in HBSS plus 10 mM HEPES (pH7.5) and 0.1% BSA. To test the agonist activity, 100 μl of cells were injected into the tubes with 20 μl of compounds. For antagonist assays, 80 μl cells were incubated in the tubes with 20 μl different concentrations of antagonists at room temperature for 20 minutes, and then 100 μl of recombinant PK2 were injected. The IC50 obtained from the assays were then converted to Ki values using the formula: IC50/(1+[PK2]/EC50PK2).
# Prokineticin receptor 1, sequence (Q8TCW9 whole entry): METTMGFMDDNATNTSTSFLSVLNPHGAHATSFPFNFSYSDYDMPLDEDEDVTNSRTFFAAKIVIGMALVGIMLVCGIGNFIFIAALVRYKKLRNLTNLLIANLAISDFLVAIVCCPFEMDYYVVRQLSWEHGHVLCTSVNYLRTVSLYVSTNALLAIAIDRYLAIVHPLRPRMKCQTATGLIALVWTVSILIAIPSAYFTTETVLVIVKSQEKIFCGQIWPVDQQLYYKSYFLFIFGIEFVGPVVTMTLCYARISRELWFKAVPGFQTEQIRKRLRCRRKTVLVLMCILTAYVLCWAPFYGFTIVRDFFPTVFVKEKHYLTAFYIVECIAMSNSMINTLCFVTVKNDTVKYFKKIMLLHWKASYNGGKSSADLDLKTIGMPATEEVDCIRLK
row,Ki [nM],SMILES
1,373,"COc1cc(F)cc(CN2CCC(C(=O)N(Cc3cc(Cl)c4c(c3)OCCCO4)CC(C)C)C2)c1 (configuration not stated) [US10780095, Structure TABLE 1.16]"
2,41.5,"COc1cc(F)cc(CN2CCC(C(=O)N(Cc3cc(Cl)c4c(c3)OCCCO4)CC(C)C)C2)c1 (configuration not stated) [US10780095, Structure TABLE 1.18]"
